pIC50: −log10 of the molar value. Read-outs that look alike come from different tables or passages of the source. Where only a bound is given, the exact number is not on record here.

One assay has as its system Calu-6 lung tumor line. As to the kind of experiment: cells. As to conditions: MTS assay, 72 hours, read-out: IC50 growth inhibition in Calu-6 cells. In kind it is cell-based, human.
A further assay concerns the target T1, MAO-B (Homo sapiens, UniProt P27338).
T1 sequence (P27338 1-520): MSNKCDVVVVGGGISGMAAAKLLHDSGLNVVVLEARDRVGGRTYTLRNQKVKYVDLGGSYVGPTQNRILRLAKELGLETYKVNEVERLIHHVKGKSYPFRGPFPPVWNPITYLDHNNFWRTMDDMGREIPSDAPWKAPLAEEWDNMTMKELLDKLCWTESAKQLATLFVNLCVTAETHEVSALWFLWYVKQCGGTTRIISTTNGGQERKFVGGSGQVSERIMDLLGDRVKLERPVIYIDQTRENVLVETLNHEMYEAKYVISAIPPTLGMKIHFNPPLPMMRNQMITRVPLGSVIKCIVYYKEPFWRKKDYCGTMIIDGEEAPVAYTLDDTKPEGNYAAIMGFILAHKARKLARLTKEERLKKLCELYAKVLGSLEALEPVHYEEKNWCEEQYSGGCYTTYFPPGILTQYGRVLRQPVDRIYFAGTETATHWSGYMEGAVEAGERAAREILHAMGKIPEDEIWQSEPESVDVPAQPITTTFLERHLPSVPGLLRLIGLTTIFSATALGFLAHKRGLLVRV
The assay is described as follows: Inhibition of monoamine oxidase B in vitro. Format: biochemical. The following applies: read-out: IC50 for inhibition against MAO-B.

For a further assay, the system named is MCF-7 breast tumor line. Format: cell-based. The following applies: MTS assay, 72 hours; read-out: IC50 growth inhibition in MCF-7 cells.
The target in another assay is T2, MAO-A (Homo sapiens, UniProt P21397).
T2 sequence (P21397 1-527): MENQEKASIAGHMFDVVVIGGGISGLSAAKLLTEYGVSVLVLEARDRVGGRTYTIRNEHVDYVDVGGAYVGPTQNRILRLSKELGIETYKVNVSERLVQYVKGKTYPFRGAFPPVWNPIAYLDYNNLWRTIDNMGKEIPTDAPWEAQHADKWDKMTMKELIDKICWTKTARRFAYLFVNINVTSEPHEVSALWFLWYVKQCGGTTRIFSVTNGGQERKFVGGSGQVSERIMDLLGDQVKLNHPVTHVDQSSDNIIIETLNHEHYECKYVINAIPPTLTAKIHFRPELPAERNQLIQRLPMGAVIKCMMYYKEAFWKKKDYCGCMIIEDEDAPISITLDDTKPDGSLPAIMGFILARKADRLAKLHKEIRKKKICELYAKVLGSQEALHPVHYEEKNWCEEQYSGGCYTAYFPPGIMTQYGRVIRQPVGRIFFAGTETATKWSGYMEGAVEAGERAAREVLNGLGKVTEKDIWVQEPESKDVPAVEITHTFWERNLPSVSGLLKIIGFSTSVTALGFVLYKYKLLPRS
As to the kind of experiment: Inhibition of monoamine oxidase A in vitro. Format: biochemical. As to conditions: read-out: IC50 for inhibition against MAO-A.

Text for MAO-A: (§1) Each data point is the average of three determinations±standard error.
Text for MAO-B: as §1

In the case of `N=C(NCCCNCCCCCCCNCCCNC(=N)NC(=N)NCCC(c1ccccc1)c1ccccc1)NC(=N)NCCC(c1ccccc1)c1ccccc1` [compound 3, verlindamycin, reference compound], the pIC50 in the assay on Calu-6 lung tumor line (Homo sapiens, Calu-6) is 4.96.

On to `CSCC[C@H](NC(=O)[C@@H](NC(=O)[C@H](CCCNC(=N)N)NC(=O)[C@H](C)N)[C@@H](C)O)C(=O)N[C@H]1CCCCNC(=O)CC[C@@H](C(=O)N[C@H](C(=O)NCC(=O)NCC(=O)N[C@@H](CCCCN)C(=O)N[C@@H](C)C(=O)N2CCC[C@H]2C(=O)N[C@@H](CCCNC(=N)N)C(=O)N[C@@H](CCCCN)C(=O)N[C@@H](CCC(N)=O)C(=O)N[C@@H](CC(C)C)C(=O)N[C@@H](C)C(N)=O)[C@@H](C)O)NC(=O)[C@H](CCCCN)NC(=O)[C@H](CCCNC(=N)N)NC(=O)[C@H](C)NC(=O)[C@H]([C@@H](C)O)NC1=O` [compound 11], for which the pIC50 is less than 4.00 at MAO-B, 3.81 with MCF-7 breast tumor line, 3.90 in the assay with Calu-6 lung tumor line and less than 4.00 at MAO-A.

(Values after patent US9186391B2, “Cyclic peptide inhibitors of lysine-specific demethylase 1” (MUSC FOUNDATION FOR RESEARCH DEVELOPMENT, priority 2013, dated 2015).)
